Assay results published in patent US6355620B1, “C-2 modified erythromycin derivatives” (Abbott Laboratories, priority 1999, dated 2002).

What was measured:
Assay in all cases: In vitro antibacterial activity, agar dilution MIC
Type in all cases: cell-based
Escherichiacoli SS = conditions: code RR, BHI agar, 35-37° C., 20 to 24 hours, unit assumed
Protocol: (§1) Representative compounds of the present invention were assayed in vitro for antibacterial activity as follows: Twelve petri dishes containing successive aqueous dilutions of the test compound mixed with 10 mL of sterilized Brain Heart Infusion (BHI) agar (Difco 0418-01-5) were prepared. Each plate was inoculated with 1:100 (or 1:10 for slow-growing strains, such as Micrococcus and Streptococcus) dilutions of up to 32 different microorganisms, using a Steers replicator block. The inoculated plates were incubated at 35-37° C. for 20 to 24 hours. In addition, a control plate, using BHI agar containing no test compound, was prepared and incubated at the beginning and end of each test.
(§2) An additional plate containing a compound having known susceptibility patterns for the organisms being tested and belonging to the same antibiotic class as the test compound was also prepared and incubated as a further control, as well as to provide test-to-test comparability.
(§3) After incubation, each plate was visually inspected. The minimum inhibitory concentration (MIC) was defined as the lowest concentration of drug yielding no growth, a slight haze, or sparsely isolated colonies on the inoculum spot as compared to the growth control.

[1] = system: Streptococcus Pneumonia GYR 1171; conditions: code YY, BHI agar, 35-37° C., 20 to 24 hours, unit assumed
Protocol: as §1, §2, §3

[2] = system: Streptococcus bovis A-5169; conditions: code JJ, BHI agar, 35-37° C., 20 to 24 hours, unit assumed
Protocol: as §1, §2, §3

[3] = system: Mycobacterium smegmatis ATCC 114; conditions: code UU, BHI agar, 35-37° C., 20 to 24 hours, unit assumed
Protocol: as §1, §2, §3

[4] = system: Micrococcusluteus ATCC 4698; conditions: code PP, BHI agar, 35-37° C., 20 to 24 hours, unit assumed
Protocol: as §1, §2, §3

[5] = system: Staphylococcus aureus 1775; conditions: code GG, BHI agar, 35-37° C., 20 to 24 hours, unit assumed
Protocol: as §1, §2, §3

[6] = system: Nocardia Asteroides ATCC 99700; conditions: code VV, BHI agar, 35-37° C., 20 to 24 hours, unit assumed
Protocol: as §1, §2, §3

[7] = system: Staphylococcus aureus A-5278; conditions: code CC, BHI agar, 35-37° C., 20 to 24 hours, unit assumed
Protocol: as §1, §2, §3

Candida albicans CCH 442 = conditions: code TT, BHI agar, 35-37° C., 20 to 24 hours, unit assumed
Protocol: as §1, §2, §3

[8] = system: Micrococcusluteus ATCC 9341; conditions: code OO, BHI agar, 35-37° C., 20 to 24 hours, unit assumed
Protocol: as §1, §2, §3

[9] = system: Streptococcus Pneumonia 5649; conditions: code ZZA, BHI agar, 35-37° C., 20 to 24 hours, unit assumed
Protocol: as §1, §2, §3

[10] = system: Haemophilislnfluenzae DILL AMP R; conditions: code WW, BHI agar, 35-37° C., 20 to 24 hours, unit assumed
Protocol: as §1, §2, §3

[11] = system: Staphylococcus aureus CMX 642A; conditions: code DD, BHI agar, 35-37° C., 20 to 24 hours, unit assumed
Protocol: as §1, §2, §3

[12] = system: Streptococcus pyogenes PIU 2548; conditions: code NN, BHI agar, 35-37° C., 20 to 24 hours, unit assumed
Protocol: as §1, §2, §3

[13] = system: Staphylococcus aureus A-5177; conditions: code BB, BHI agar, 35-37° C., 20 to 24 hours, unit assumed
Protocol: as §1, §2, §3

[14] = system: Enterococcusfaecium ATCC X043; conditions: code II, BHI agar, 35-37° C., 20 to 24 hours, unit assumed
Protocol: as §1, §2, §3

[15] = system: Streptococcus pyogenes 930; conditions: code MM, BHI agar, 35-37° C., 20 to 24 hours, unit assumed
Protocol: as §1, §2, §3

Escherichiacoli DC-2 = conditions: code SS, BHI agar, 35-37° C., 20 to 24 hours, unit assumed
Protocol: as §1, §2, §3

[16] = system: Staphylococcus aureus NCTC 10649M; conditions: code EE, BHI agar, 35-37° C., 20 to 24 hours, unit assumed
Protocol: as §1, §2, §3

[17] = system: Staphylococcus epidermidis 3519; conditions: code HH, BHI agar, 35-37° C., 20 to 24 hours, unit assumed
Protocol: as §1, §2, §3

[18] = system: Streptococcus Pneumonia ATCC 6303; conditions: code XX, BHI agar, 35-37° C., 20 to 24 hours, unit assumed
Protocol: as §1, §2, §3

Escherichiacoli JUHL = conditions: code QQ, BHI agar, 35-37° C., 20 to 24 hours, unit assumed
Protocol: as §1, §2, §3

[19] = system: Staphylococcus aureus ATCC 6538P; conditions: code AA, BHI agar, 35-37° C., 20 to 24 hours, unit assumed
Protocol: as §1, §2, §3

[20] = system: Streptococcus agalactiae CMX 508; conditions: code KK, BHI agar, 35-37° C., 20 to 24 hours, unit assumed
Protocol: as §1, §2, §3

[21] = system: Staphylococcus aureus CMX 553; conditions: code FF, BHI agar, 35-37° C., 20 to 24 hours, unit assumed
Protocol: as §1, §2, §3

[22] = system: Streptococcus pyogenes EES61; conditions: code LL, BHI agar, 35-37° C., 20 to 24 hours, unit assumed
Protocol: as §1, §2, §3

[23] = system: Streptococcus Pneumonia 5979; conditions: code ZZ, BHI agar, 35-37° C., 20 to 24 hours, unit assumed
Protocol: as §1, §2, §3

SMILES	Antibacterial Activity (MIC) (Escherichiacoli SS) [µg/mL]	Antibacterial Activity (MIC) [1] [µg/mL]	Antibacterial Activity (MIC) [2] [µg/mL]	Antibacterial Activity (MIC) [3] [µg/mL]	Antibacterial Activity (MIC) [4] [µg/mL]	Antibacterial Activity (MIC) [5] [µg/mL]	Antibacterial Activity (MIC) [6] [µg/mL]	Antibacterial Activity (MIC) [7] [µg/mL]	Antibacterial Activity (MIC) (Candida albicans CCH 442) [µg/mL]	Antibacterial Activity (MIC) [8] [µg/mL]	Antibacterial Activity (MIC) [9] [µg/mL]	Antibacterial Activity (MIC) [10] [µg/mL]	Antibacterial Activity (MIC) [11] [µg/mL]	Antibacterial Activity (MIC) [12] [µg/mL]	Antibacterial Activity (MIC) [13] [µg/mL]	Antibacterial Activity (MIC) [14] [µg/mL]	Antibacterial Activity (MIC) [15] [µg/mL]	Antibacterial Activity (MIC) (Escherichiacoli DC-2) [µg/mL]	Antibacterial Activity (MIC) [16] [µg/mL]	Antibacterial Activity (MIC) [17] [µg/mL]	further results
CC[C@H]1OC(=O)[C@H](C)[C@@H](O[C@H]2C[C@@](C)(OC)[C@@H](O)[C@H](C)O2)[C@H](C)[C@@H](O[C@@H]2O[C@H](C)C[C@H](N(C)C)[C@H]2O)[C@](C)(O)C[C@@H](C)C(=O)[C@H](C)[C@@H](O)[C@]1(C)O [Ery. A standard, Erythromycin A, reference compound]	0.78	0.06	0.02	3.1	0.2	> 100	0.1	> 100	> 100	0.05	16	4	0.39	6.2	3.1	0.05	> 100	> 100	0.39	0.39	Antibacterial Activity (MIC) [18]: 0.06 µg/mL; Antibacterial Activity (MIC) (Escherichiacoli JUHL): > 100 µg/mL; Antibacterial Activity (MIC) [19]: 0.2 µg/mL; Antibacterial Activity (MIC) [20]: 0.05 µg/mL; Antibacterial Activity (MIC) [21]: 0.39 µg/mL; Antibacterial Activity (MIC) [22]: 0.05 µg/mL
CCC1OC(=O)C(C)(CC=Cc2ccccc2)C(=O)C(C)C(OC2OC(C)CC(N(C)C)C2O)C(C)(OC)CC(C)C(=O)C(C)C2NC(=O)OC12C (centres unmarked) [Example 1, Compound of formula (II): R^a is CH3, R^b is H, Y and Z together are O, T is —NH—, R is —CH2CH═CH-(phenyl)]	50	4	12.5	25	6.2	100	25	100	100	3.1	16	> 128	25	12.5	25	25	50	> 100	50	50	Antibacterial Activity (MIC) [23]: 64 µg/mL; Antibacterial Activity (MIC) [18]: 8 µg/mL; Antibacterial Activity (MIC) (Escherichiacoli JUHL): > 100 µg/mL; Antibacterial Activity (MIC) [19]: 25 µg/mL; Antibacterial Activity (MIC) [20]: 12.5 µg/mL; Antibacterial Activity (MIC) [21]: 50 µg/mL; Antibacterial Activity (MIC) [22]: 12.5 µg/mL
CCC1OC(=O)C(C)(O)C(=O)C(C)C(OC2OC(C)CC(N(C)C)C2O)C(C)(OC)CC(C)C(=O)C(C)C2N(CCCCc3ccccc3)C(=O)OC12C (centres unmarked) [Example 2, Compound of formula (II): R^a is CH3, R^b is H, Y and Z together are O, T is —N(W(R^g))—, W is —(CH2)p—, p is 4, R^g is phenyl, R is —OH]	6.2	0.25	0.2	3.1	0.78	100	3.1	100	100	0.39	1	64	3.1	0.39	1.56	0.39	25	> 100	1.56	3.1	Antibacterial Activity (MIC) [23]: 32 µg/mL; Antibacterial Activity (MIC) [18]: 0.5 µg/mL; Antibacterial Activity (MIC) (Escherichiacoli JUHL): > 100 µg/mL; Antibacterial Activity (MIC) [19]: 1.56 µg/mL; Antibacterial Activity (MIC) [20]: 0.2 µg/mL; Antibacterial Activity (MIC) [21]: 1.56 µg/mL; Antibacterial Activity (MIC) [22]: 0.1 µg/mL
